No end group written: not given here.
Assays:
[1] = system: ghrelin receptor (GHS-R1A) knockout mice; conditions: alcohol 1.0 g/kg i.p.; GHS-R knockout mice vs wildtype; P<0.05
Description: Locomotor activity was registered in eight sound attenuated, ventilated and dimly lit locomotor boxes (420×420×200 mm, Plexiglas®). Five by five rows of photocell beams at the floor level of the box allowed a computer-based system to register the activity of the mice. The mice were allowed to habituate to the environment in the box for one hour before drug challenge and initialization of the experiment. […] Locomotor activity was defined as the accumulated number of new photocell beams interrupted during a 60-minute period.

[2] = system: ghrelin receptor (GHS-R1A) knockout mice; conditions: alcohol 1.0 g/kg ip; GHSR knockout mice vs wt/wt
Description: The mice were implanted with a microdialysis probe in the nucleus accumbens for measurements of extracellular dopamine levels. […] The mice were connected to the microdialysis apparatus via a liquid swivel (CMA/Microdialysis AB, Stockholm, Sweden) and were able to move freely during the experiment. After one hour of habituation to the microdialysis perfusion set up, perfusion samples (30 μl) were collected every 20 minutes. Five samples were collected prior to the first alcohol challenge. The baseline dopamine level is defined as the averaged concentration of the three consecutive samples before the first alcohol challenge. Thereafter vehicle (saline, ip) was administered at time 0 minutes.

mice = experiment: Effects of central ghrelin injection on alcohol intake and alcohol preference, two-bottle free choice paradigm; type: in vivo; conditions: for average alcohol intake / average alcohol preference: ghrelin 2 μg in 1 μl into third ventricle; for average alcohol intake: baseline 1.65; for average alcohol preference: day before 26.76%
Description: The following studies sought to determine whether ghrelin increases alcohol intake and the preference for alcohol in mice selected on the basis of their spontaneous level of alcohol intake. We tested the effects of ghrelin injection into the brain ventricles on alcohol consumption and alcohol preference in mice.
All mice used in this study were selected on the basis of their spontaneously medium level of alcohol intake. Initially, the mice were able to choose freely between alcohol solution (10%) and water. When they had established a stable alcohol intake (approximately 20-80% of their total fluid intake was alcohol) they began a training schedule that gave them access to 10% alcohol for 90 min ever day over two weeks. The mice were then implanted with a cannula into the third ventricle of the brain for subsequent injection. During a baseline period, spontaneous alcohol intake was measured during a 90 min period average for 3 measurements taken on 3 days using a two-bottle free choice paradigm (i.e. water or 10% alcohol). The same protocol was used after ghrelin/vehicle injection on the experimental days.

[3] = intraventricular administration, p<0.05, paired t-test

| Compound | alcohol-induced locomotor activity [1] | alcohol-induced accumbal dopamine release [2] | average alcohol intake (mice; experiment day one) | average alcohol preference (mice; experiment day one) | average alcohol intake (mice; experiment day two) | average alcohol preference (mice; experiment day two) | effect on alcohol intake compared to the day before the experiments (mice; [3]) | effect on alcohol preference compared to the day before the experiments (mice; [3]) |
| --- | --- | --- | --- | --- | --- | --- | --- | --- |
| CCO [alcohol] | do not show an alcohol-induced locomotor activity | blunted | – | – | – | – | – | – |
| ghrelin (GSSFLSPEHQRVQQRKESKKPPAKLQPR; ends and bridges not checked; UniProt Q9UBU3 24-51, looked up) [endogenous ligand for GHS-R, secreted by stomach tissue; purchasable from Bachem] | – | – | 1.72 g/kg/1.5 hr | 31.72% | 2.15 g/kg/1.5 hr | 33.70% | increased the alcohol intake | significant increase of alcohol preference |
